Test results taken from patent US20210085739A1, “ANTIPLATELET ACTIVITY OF THE ACANTHUS MOLLIS SEEDS' TOTAL EXTRACT AND ITS CONSTITUENTS” (priority 2017, published 2021).

Legend:
[1] = test system: platelet aggregation induced by AA; experiment: Light Transmittance Aggregometry in human PRP, agonist arachidonic acid (AA; 0.5 mM); assay type: cell-based; conditions: for inhibition of AA-induced platelet aggregation (FIG. 5A, 6A): each agent 1 mg/mL, combinations at mass ratios 1:1 or 1:1:1
Protocol: (§1) The effect of methanol extract on platelet aggregation in vitro was extensively studied in human Platelet Rich Plasma (PRP) from healthy volunteers, using Light Transmittance Aggregometry (LTA), as we previously described (Mitsios J V, et al. Eur J Biochem. 2004; 271:855-862). PRP was activated by arachidonic acid (AA; 0.5 mM), Thrombin Receptor Activating Peptide-6 (TRAP-6; 10 μM) and ADP (10 μM), as agonists. Samples were prepared by evaporating the methanol under nitrogen and then by dissolving the residue in DMSO. The maximal aggregation, achieved within 4 min after the addition of each agonist, was determined and expressed as a percentage of 100% light transmission calibrated for each specimen (% maximal aggregation). The inhibitory efficacy of the seeds extract expressed as IC50 value (half maximal inhibitory concentration). All values derived from at least three independent experiments performed for each platelet agonist, using 3 different methanol extract preparations (prepared as described above) and are expressed as the mean±standard deviation (S.D.). The final concentration of DMSO in each assay was 0.01% by volume.
(§2) Each fraction was dissolved in DMSO and used at a final concentration of 1 mg/mL. Standards of Verbascoside and Isoverbascoside were also dissolved in DMSO and used at a final concentration of 1 mg/mL. […] This concentration was not much lower to that of the total extract 0.25 mg/mL (as it would expected, since we used a purified fraction from the total extract that expresses the inhibitory activity towards AA-induced platelet aggregation). Therefore, we used a combination of fraction 1 with fraction 2 or 3 (at mass ratios of 1:1) or a combination of the 3 fractions (at mass ratios of 1:1:1).

[2] = test system: platelet aggregation induced by TRAP-6; experiment: Light Transmittance Aggregometry in human PRP, agonist TRAP-6 (10 μM); assay type: cell-based; conditions: each agent 1 mg/mL, combinations at mass ratios 1:1 or 1:1:1
Protocol: as §1, §2
Next we evaluated the biological effect of the three fractions towards platelet aggregation induced by TRAP-6.

Compound | inhibition of AA-induced platelet aggregation (FIG. 5A, 6A) [1] | inhibition of TRAP-6-induced platelet aggregation (FIG. 5B, 6B) [2] | threshold concentration (the lower concentration that induces the maximum inhibitory effect), AA-induced platelet aggregation [1] [mg/mL]
C[C@@H]1O[C@@H](O[C@@H]2[C@@H](O)[C@H](OCCc3ccc(O)c(O)c3)O[C@H](COC(=O)/C=C/c3ccc(O)c(O)c3)[C@H]2O)[C@H](O)[C@H](O)[C@H]1O [Isoverbascoside] | do not inhibit platelet aggregation | inhibited platelet aggregation | 
C[C@@H]1O[C@@H](O[C@@H]2[C@@H](O)[C@H](OCCc3ccc(O)c(O)c3)O[C@H](CO)[C@H]2OC(=O)/C=C/c2ccc(O)c(O)c2)[C@H](O)[C@H](O)[C@H]1O [Verbascoside] | do not inhibit platelet aggregation | only Isoverbascoside inhibited platelet aggregation | 
O=C1C(O[C@@H]2O[C@H](CO)[C@@H](O)[C@H](O)[C@H]2O)Oc2ccccc2N1O (stereo partly drawn) [fraction 1, 2-O-β-D-glucopyranosyl-4-hydroxy-1,4-benzoxazin-3-one] | inhibited platelet aggregation | no inhibitory activity | 0.2
